Activity calls are given as the source filed them.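 How the source made its calls: active means maximal inhibition of USP17 at or above 30% in the confirmation dose-response, a value not among the printed readouts; inactive means the rest.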
Each molecule was assayed against Ubiquitin carboxyl-terminal hydrolase 17-like protein 5 (Homo sapiens) (UniProt A8MUK1) (assay: ubiquitin-specific protease 17 inhibitors, concentration series, biochemical, verification of primary actives (AID 1645864)). Conditions: purified USP17, ubiquitin-rhodamine cleavage fluorescence, 3 h.
Chain of Ubiquitin carboxyl-terminal hydrolase 17-like protein 5 (Homo sapiens) (A8MUK1 whole entry, looked up): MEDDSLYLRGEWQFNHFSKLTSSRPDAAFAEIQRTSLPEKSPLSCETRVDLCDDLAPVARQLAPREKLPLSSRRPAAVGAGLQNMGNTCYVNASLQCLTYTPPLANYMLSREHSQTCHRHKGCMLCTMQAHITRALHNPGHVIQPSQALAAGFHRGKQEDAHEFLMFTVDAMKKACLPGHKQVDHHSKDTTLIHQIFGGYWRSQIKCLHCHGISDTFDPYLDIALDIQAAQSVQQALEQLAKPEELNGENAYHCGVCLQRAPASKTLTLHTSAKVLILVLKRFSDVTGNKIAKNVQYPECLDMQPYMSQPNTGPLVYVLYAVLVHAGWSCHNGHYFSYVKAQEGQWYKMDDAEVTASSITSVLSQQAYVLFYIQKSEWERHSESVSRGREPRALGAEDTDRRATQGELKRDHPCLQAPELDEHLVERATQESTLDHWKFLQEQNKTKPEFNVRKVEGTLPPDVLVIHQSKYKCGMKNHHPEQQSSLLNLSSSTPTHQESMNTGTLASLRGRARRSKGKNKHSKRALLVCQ

IC50 | Compound
9.93 µM | COc1ccc(CNC(=O)Nc2cccc3ccccc23)cc1
2.65 µM | COc1ccc(CNC(=O)CCc2nnc3n(Cc4ccccc4Cl)c(=O)c4ccccc4n23)cc1
28.8 µM | COc1cc(=O)c(C(=O)Nc2ccc(C#N)cc2)nn1-c1cccc(F)c1
2.25 µM | CC(NC(=O)c1ccccc1)c1nc2ccccc2n1CC(=O)Nc1ccc2c(c1)OCO2 (stereo unspecified)
> 50 µM (inactive) | COCCNC(=O)c1ccn(-c2ccc3ccc(-c4ccncc4)cn23)n1
30.1 µM | CC(C(=O)NCc1ccc2c(c1)OCO2)N1CCN(c2ccc(O)cc2)CC1 (stereo unspecified)
> 50 µM (inactive) | Cc1sc(NC(=O)CN2CCc3ccccc3C2)nc1-c1ccc2c(c1)CCN2C(=O)C1CCCCC1
37.4 µM | COc1cccc(NC(=O)c2ccc3noc(-c4ccc(Cl)cc4)c3c2)c1
25.9 µM | O=C(COC(=O)c1n[nH]c2ccccc12)Nc1ccc(N2CCCCC2)cc1
> 5 µM (inactive) | CCOC(=O)c1ccc(NC(=O)c2cnc(N3CCOCC3)nc2)cc1
1.68 µM | Cc1cc(C(=O)Nc2ccc3nc(N4CCN(c5ncccn5)CC4)cc(C)c3c2)ccc1[N+](=O)[O-]
24.1 µM | Cc1ccc(C(=O)NCc2ccc(C(=O)Nc3ccc(C)c(C)c3)o2)cc1
> 50 µM (inactive) | COCCCN1CCS(=O)(=O)c2c(Cl)c(F)nc(Oc3ccc(C#N)cc3)c21
3.05 µM | COc1ccc(NC(=O)c2nnc(C(=O)NCCN3CCCCCC3)s2)cc1
> 50 µM (inactive) | CCc1ccc(OCc2nnc(SCC(=O)Nc3ccccc3OC)n2Cc2ccccc2)cc1
> 50 µM (inactive) | Cc1ccc(C(=O)Nc2cc3c4c(c2)CC(=O)N4CCC3)cc1
> 50 µM (inactive) | O=C(c1nnn(Cc2ccc(Cl)cc2)c1-n1cccc1)N1CCCC1
17.9 µM | CCOc1ccc(NS(=O)(=O)c2ccc(NC(=O)Nc3ccccc3)cc2)cc1
29.2 µM | COc1ccc2nc(NC(=O)C(CC(C)C)NS(=O)(=O)c3ccc4c(c3)CCN4C(C)=O)sc2c1 (stereo unspecified)
20.2 µM | Cc1ccn(-c2ccc(NC(=O)C3CCCCC3)cc2)n1
4.85 µM | Cc1ccc(NC(=O)Cc2nnc3c(-c4nc(C5CC5)no4)cccn23)cc1
> 50 µM (inactive) | COc1cccc(NC(=O)C2Cn3ccnc3C3(CCN(C(C)=O)CC3)O2)c1 (stereo unspecified)
18.7 µM | Cc1cc(-c2nnc(SCC(=O)Nc3ccc(Br)c(C)c3)n2N)n[nH]1
16.4 µM | Cc1ccc2oc(=O)c(S(=O)(=O)N3CCCCC3)cc2c1
> 50 µM (inactive) | Cc1ccc2c(=O)c3c([nH]c2c1C)CCN(CC(=O)NCc1ccccc1)C3
26.4 µM | CC(C)C(=O)Nc1ccc(N2CCN(Cc3ccc(F)cc3)C2=O)nc1
44.1 µM | Cc1cccc(NC(=O)CSc2ncnc3c2sc2nc(CC(C)C)c4c(c23)CCC4)c1

The next lines start with the molecule.

Compound | IC50
Fc1ccc(CN2CCc3nc4cccnc4cc3C2)cc1 | > 50 µM (inactive)
Cc1ccccc1NC(=O)C(C)n1c(=O)cc(-c2ccccc2)c2c(C)nn(C)c21 (stereo unspecified) | 2.67 µM
O=C(Nc1ccccc1Sc1ncc(-c2ccc(Cl)cc2)cn1)c1ccco1 | 5.78 µM
O=C(Cn1cnc2c(oc3ccccc32)c1=O)NCc1ccccc1Cl | 14.5 µM
CN1CCN(c2ccc3nc(-c4ccccc4)c(-c4ccccc4)nc3c2)CC1 | > 50 µM (inactive)
O=C(Cn1c(=O)n(Cc2ccc(F)cc2)c(=O)c2sccc21)Nc1cccc(Cl)c1 | 7.77 µM
Cc1cc(C2CC(=O)Nc3c2c(C)nn3-c2nc3ccccc3[nH]2)c(C)s1 (stereo unspecified) | 23 µM
Cc1ccc(Cn2c(=O)c3ccccc3n3c(CCC(=O)N4CCN(c5ccccn5)CC4)nnc23)cc1 | 11.8 µM
CC(C)Cc1nc2oc3c(N(C)CCO)ncnc3c2c2c1CCC2 | > 50 µM (inactive)
Fc1ccc(Cn2ccc(-c3cnc(-c4ccccc4)s3)n2)cc1 | > 50 µM (inactive)
O=C(NCc1ccc2c(c1)OCO2)c1nc(-c2ccccc2)n(-c2ccccc2)n1 | > 50 µM (inactive)
CN(Cc1ccccc1)S(=O)(=O)c1ccc2[nH]cc(C(=O)NCc3cccs3)c(=O)c2c1 | 0.749 µM
Cc1cc(-n2c(C)cc(-c3csc(N)n3)c2C)no1 | > 50 µM (inactive)
O=C(c1ccco1)N1CCC2(CC1)CC1(CO2)Nc2ccccc2-n2cccc21 (stereo unspecified) | 20.6 µM
O=C(CNc1ccc(F)c(Cl)c1)Nc1ccc2c(c1)OCCO2 | > 50 µM (inactive)
CC1CS(=O)(=O)N(c2ccc(C(=O)Nc3ccc4c(c3)OCCO4)cc2)C1=O (stereo unspecified) | 35.6 µM
N#Cc1ccc(Cc2ncc(C(F)(F)F)cc2Cl)s1 | > 50 µM (inactive)

Compound | IC50
COc1ccc(C2CC(=O)Nc3n[nH]c(-c4ccccc4)c32)cc1OC (stereo unspecified) | 29.7 µM
O=C(Nc1cccn(Cc2c(Cl)cccc2Cl)c1=O)c1ccccc1[N+](=O)[O-] | 37 µM
CN1CCN(c2ncnc3c2oc2ccc(Cl)cc23)CC1 | > 50 µM (inactive)
COc1ccc(Nc2nc3c(S(=O)(=O)c4ccc(C)cc4)nnn3c3ccsc23)c(OC)c1 | 2.62 µM
O=C(C(c1ccccc1)c1ccccc1)N1CCC(c2nc3c(nnn3Cc3c(F)cccc3Cl)c(=O)[nH]2)CC1 | 15.1 µM
O=C(CSc1nc2ccccc2n1S(=O)(=O)c1ccc(Br)cc1)Nc1ccc([N+](=O)[O-])cc1Cl | > 50 µM (inactive)
Cc1ccc(NC2=NC(c3ccco3)n3c(nc(C)cc3=O)N2)c(C)c1 (stereo unspecified) | 4.62 µM
Cc1nn(-c2ccc(F)cc2)cc1-c1noc(C(=O)NCc2ccccn2)n1 | 23.5 µM
Cc1ccccc1NC(=O)CNc1nc(Nc2ccccc2)nc(Nc2ccccc2)n1 | 21.7 µM
CCOc1ccc(C(=O)Cn2c(=O)n(CC3CCCO3)c(=O)c3cc(OC)c(OC)cc32)cc1Cl (stereo unspecified) | 17.7 µM
Cc1ccc(-c2cnc(C3CC3)o2)cc1S(=O)(=O)Nc1ccc(F)c(Cl)c1 | 38.1 µM
CCc1ccc(NC(=O)CN=C2NS(=O)(=O)C(c3ccc(CC)cc3)=C2C)cc1 | 32.5 µM
Cc1nc(-c2noc(-c3ccncc3)n2)cn1CC(=O)N1CCN(c2ccc(F)cc2)CC1 | > 50 µM (inactive)
c1ccc2c(c1)CCc1c-2nc2ccccc2c1N1CCOCC1 | > 50 µM (inactive)
CCCCCCCc1cc(O)cc(O)c1 | > 50 µM (inactive)
CC(=O)c1oc2nc3c(c(-c4ccc(Cl)cc4)c2c1N)CCc1ccccc1-3 | > 50 µM (inactive)
O=C(CN1C(=O)C2CCCC2=Nc2ccccc21)Nc1cc(F)ccc1F (stereo unspecified) | 13.9 µM

Reference: PubChem BioAssay AID1645864 (Buhrlage Lab, Dana-Farber Cancer Institute and Novartis …, 2021)
